Read-outs that look alike come from different tables or passages of the source.
Legend:
[1] = cited from earlier work
advanced malignancies = details: cited from earlier work
Phospho-AKT (T308) = details: CLL cells from a subset of patients, post-dose; cited from earlier work
[2] = background statement, ref not given; cited from earlier work
[3] = Plasma pharmacokinetics of SF1126 and hydrolysis products SF1101 and SF1174; type: in vivo, human; details: human, in vivo

COc1ccc(-c2ccc3ncc4c(c3c2)n(-c2ccc(N3CCNCC3)c(C(F)(F)F)c2)c(=O)n4C)cn1 [BGT226]
AE profile ([1]; phase I, advanced solid tumours): nausea, vomiting and diarrhoea

Nc1cc(C(F)(F)F)c(-c2cc(N3CCOCC3)nc(N3CCOCC3)n2)cn1 [BKM120]
Patients on study for P8 months (advanced malignancies; phase I): 7
PR (number of patients) (advanced malignancies; phase I, triple negative breast cancer (KRAS mutated) patient): 1
AEs ([1]; phase I): grade 3 rash, abdominal pain and mood alterations
Events observed at DLT ([1]; phase I): Two grade 4 hyperglycaemic events

CC[C@H](Nc1ncnc2[nH]cnc12)c1nc2cccc(F)c2c(=O)n1-c1ccccc1 [CAL-101]
Reduction of Phospho-AKT (T308) (Phospho-AKT (T308)): > 90%
Patients with durable responses of >6 months (advanced malignancies; refractory non-Hodgkin's lymphoma and chronic lymphocytic leukaemia): 5

CS(=O)(=O)N1CCN(Cc2cc3nc(-c4cccc5[nH]ncc45)nc(N4CCOCC4)c3s2)CC1 [GDC-0941]
Patients with anti-tumour activity (advanced malignancies; phase I, relapsed/refractory solid tumours): 3 of 19

C=CCN(/C=C1/C(=O)O[C@H](COC)[C@@]2(C)C1=C(O)C(=O)C1=C2[C@H](OC(C)=O)C[C@]2(C)C(=O)CC[C@@H]12)CC=C [PX-866]
Grade 3 adverse event [1]: 1 reversible grade 3 transminitis

O=c1cc(N2CCOCC2)oc2c(-c3ccccc3)cccc12 [SF1101, reference compound]
half-life [2]: short half-life
Concentrations reached (Cmax versus dose) [3]: 20 to 30 µM
half-life ([3]; iv): 1 to 2.4 h

COc1ccc(Cl)c(Nc2nc3ccccc3nc2NS(=O)(=O)c2cccc(NC(=O)C(C)(C)N)c2)c1 [XL147]
Partial response (advanced malignancies): PR in a NSCLC patient with a confirmed PI3K3CA mutation
Major DLT [1]: skin rash

CCn1c(=O)c(-c2cc[nH]n2)cc2c(C)nc(N)nc21 [XL765]
Patients on study for ≥16 weeks (advanced malignancies; Phase I, oral): 11
Patients on study for ≥24 weeks (advanced malignancies; Phase I, oral): 7
